Source: ChEMBL document CHEMBL4402546, “Urea Derivatives in Modern Drug Discovery and Medicinal Chemistry” (J Med Chem, 2020)

Tests used:
DNA gyrase subunit B = DNA gyrase subunit B (Escherichia coli, UniProt P0AES6); test: Inhibition of Escherichia coli DNA gyrase B incubated for 60 mins by malachite green dye based spectrometric analysis
[1] = Inhibition of Escherichia coli DNA topoisomerase 4 incubated for 60 mins by malachite green dye based spectrometric analysis
Protease = Protease (Human immunodeficiency virus 1, UniProt Q9YQ12); test: Inhibition of HIV-1 protease by spectrofluorometric assay
Plasmodium falciparum [2] = test: Antimalarial activity against Plasmodium falciparum 3D7 incubated for 48 hrs by [3H]-hypoxanthine incorporation assay; assay type: functional, organism-based
Plasmodium falciparum [3] = test: Antimalarial activity against Plasmodium falciparum Dd2 incubated for 48 hrs by [3H]-hypoxanthine incorporation assay; assay type: functional, organism-based
Plasmodium berghei = test: Antiparasitic activity against blood stage Plasmodium berghei ANKA infected in ARC mouse assessed as suppression of parasitemia at 32 mg/kg, sc administered twice daily with 6 hrs apart for 4 consecutive days by Giemsa staining based microscopic analysis relative to control
[4] = target: Metabotropic glutamate receptor 5 (Rattus norvegicus, UniProt P31424); test: Inhibition of rat mGluR5 expressed in HEK293A cells preincubated for 140 secs followed by EC20 glutamate stimulation for 74 secs and subsequent EC80 glutamate addition and measured up to 40 secs by Fluo-4-AM dye based fluorescence assay; assay type: cell-based
[5] = target: Metabotropic glutamate receptor 1 (Homo sapiens, UniProt Q13255); test: Inhibition of mGluR1 (unknown origin)
[6] = target: Metabotropic glutamate receptor 2 (Homo sapiens, UniProt Q14416); test: Inhibition of mGluR2 (unknown origin)
[7] = target: Metabotropic glutamate receptor 3 (Homo sapiens, UniProt Q14832); test: Inhibition of mGluR3 (unknown origin)
[8] = target: Metabotropic glutamate receptor 4 (Homo sapiens, UniProt Q14833); test: Inhibition of mGluR4 (unknown origin)
[9] = target: Metabotropic glutamate receptor 7 (Homo sapiens, UniProt Q14831); test: Inhibition of mGluR7 (unknown origin)
[10] = target: Metabotropic glutamate receptor 8 (Homo sapiens, UniProt O00222); test: Inhibition of mGluR8 (unknown origin)
[11] = target: Serine/threonine-protein kinase B-raf (Homo sapiens, UniProt P15056, V600E); test: Inhibition of BRAF V600E mutant (unknown origin)
[12] = target: RAF proto-oncogene serine/threonine-protein kinase (Homo sapiens, UniProt P04049); test: Inhibition of c-RAF (unknown origin)
LoVo = test: Antiproliferative activity against human LoVo cells after 72 hrs by CCK8 assay; assay type: functional, cell-based
HT-29 = test: Antiproliferative activity against human HT-29 cells after 72 hrs by CCK8 assay; assay type: functional, cell-based; conditions: HT-29, 72 h
[13] = Half life in schizophrenic patient at 1.5 to 12.5 mg/day; assay type: ADME; conditions: human, in vivo
[14] = Half life in plasma (unknown origin); assay type: ADME, cell-free

Sequence of Protease (Q9YQ12 whole entry): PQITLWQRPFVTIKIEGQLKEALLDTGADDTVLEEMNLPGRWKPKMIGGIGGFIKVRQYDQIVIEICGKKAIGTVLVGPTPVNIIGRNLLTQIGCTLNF
Sequence of Metabotropic glutamate receptor 4 (Q14833 whole entry): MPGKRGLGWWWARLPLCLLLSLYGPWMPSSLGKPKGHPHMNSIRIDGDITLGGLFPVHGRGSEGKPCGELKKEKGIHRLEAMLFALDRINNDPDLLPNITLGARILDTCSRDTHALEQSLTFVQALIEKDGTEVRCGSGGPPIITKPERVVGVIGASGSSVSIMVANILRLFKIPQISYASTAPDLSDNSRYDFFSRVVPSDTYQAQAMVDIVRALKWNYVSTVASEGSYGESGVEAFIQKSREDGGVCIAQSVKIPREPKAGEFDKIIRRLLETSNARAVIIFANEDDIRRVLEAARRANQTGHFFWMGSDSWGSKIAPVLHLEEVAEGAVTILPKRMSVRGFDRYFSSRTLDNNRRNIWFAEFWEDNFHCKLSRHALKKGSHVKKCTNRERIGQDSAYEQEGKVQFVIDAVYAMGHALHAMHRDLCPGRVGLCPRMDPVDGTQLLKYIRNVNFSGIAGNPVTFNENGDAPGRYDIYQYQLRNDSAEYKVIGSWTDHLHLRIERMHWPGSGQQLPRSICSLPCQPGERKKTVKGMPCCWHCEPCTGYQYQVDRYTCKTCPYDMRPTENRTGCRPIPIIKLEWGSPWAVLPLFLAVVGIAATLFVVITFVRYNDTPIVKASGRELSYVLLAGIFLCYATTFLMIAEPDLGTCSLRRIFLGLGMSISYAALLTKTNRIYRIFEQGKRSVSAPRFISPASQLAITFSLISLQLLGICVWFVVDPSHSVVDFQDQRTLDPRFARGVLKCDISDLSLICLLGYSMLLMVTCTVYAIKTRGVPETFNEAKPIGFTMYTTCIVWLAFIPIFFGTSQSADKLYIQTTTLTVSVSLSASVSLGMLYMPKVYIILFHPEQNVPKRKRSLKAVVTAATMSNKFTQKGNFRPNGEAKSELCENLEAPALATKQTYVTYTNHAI
Sequence of Metabotropic glutamate receptor 7 (Q14831 whole entry): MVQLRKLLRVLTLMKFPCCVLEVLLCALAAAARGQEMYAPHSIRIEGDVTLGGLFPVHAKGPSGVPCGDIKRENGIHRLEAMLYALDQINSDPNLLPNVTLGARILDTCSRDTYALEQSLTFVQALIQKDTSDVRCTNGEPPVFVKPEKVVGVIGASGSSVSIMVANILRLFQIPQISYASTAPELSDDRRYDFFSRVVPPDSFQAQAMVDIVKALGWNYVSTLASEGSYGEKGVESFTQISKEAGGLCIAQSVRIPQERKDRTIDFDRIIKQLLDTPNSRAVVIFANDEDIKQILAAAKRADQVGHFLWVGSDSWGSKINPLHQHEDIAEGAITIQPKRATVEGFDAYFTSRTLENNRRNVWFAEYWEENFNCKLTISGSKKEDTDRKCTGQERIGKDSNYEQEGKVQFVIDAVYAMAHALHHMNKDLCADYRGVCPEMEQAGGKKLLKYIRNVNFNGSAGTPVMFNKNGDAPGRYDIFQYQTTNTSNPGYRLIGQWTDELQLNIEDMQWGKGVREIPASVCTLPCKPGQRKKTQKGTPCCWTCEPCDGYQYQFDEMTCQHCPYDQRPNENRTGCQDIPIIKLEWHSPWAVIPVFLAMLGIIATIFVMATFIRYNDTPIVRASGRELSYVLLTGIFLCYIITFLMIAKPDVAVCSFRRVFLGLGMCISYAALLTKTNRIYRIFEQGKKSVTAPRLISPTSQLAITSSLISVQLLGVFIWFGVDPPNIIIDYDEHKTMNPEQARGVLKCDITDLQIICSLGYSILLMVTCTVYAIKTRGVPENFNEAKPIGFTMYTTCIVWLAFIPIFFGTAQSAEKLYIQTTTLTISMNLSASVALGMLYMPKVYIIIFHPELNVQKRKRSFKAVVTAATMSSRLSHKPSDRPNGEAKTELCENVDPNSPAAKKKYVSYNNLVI
Sequence of RAF proto-oncogene serine/threonine-protein kinase (P04049 whole entry): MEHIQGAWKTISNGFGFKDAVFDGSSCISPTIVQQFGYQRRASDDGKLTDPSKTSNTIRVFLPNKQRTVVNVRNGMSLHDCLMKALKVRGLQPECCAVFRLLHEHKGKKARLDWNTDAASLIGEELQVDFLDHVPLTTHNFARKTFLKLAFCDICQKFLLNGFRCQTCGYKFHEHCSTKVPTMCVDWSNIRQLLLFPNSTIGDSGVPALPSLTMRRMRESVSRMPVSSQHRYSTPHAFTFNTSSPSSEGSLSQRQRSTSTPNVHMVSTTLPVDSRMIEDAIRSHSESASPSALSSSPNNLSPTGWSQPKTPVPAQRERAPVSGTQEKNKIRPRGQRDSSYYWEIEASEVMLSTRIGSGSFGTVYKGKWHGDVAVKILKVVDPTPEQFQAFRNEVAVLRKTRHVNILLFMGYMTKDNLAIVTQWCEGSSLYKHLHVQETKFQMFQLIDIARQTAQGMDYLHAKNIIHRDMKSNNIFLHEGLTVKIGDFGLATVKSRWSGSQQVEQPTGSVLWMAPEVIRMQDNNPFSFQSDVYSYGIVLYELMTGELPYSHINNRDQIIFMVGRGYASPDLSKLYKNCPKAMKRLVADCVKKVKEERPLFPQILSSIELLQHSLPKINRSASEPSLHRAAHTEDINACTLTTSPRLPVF
Sequence of Metabotropic glutamate receptor 1 (Q13255 whole entry): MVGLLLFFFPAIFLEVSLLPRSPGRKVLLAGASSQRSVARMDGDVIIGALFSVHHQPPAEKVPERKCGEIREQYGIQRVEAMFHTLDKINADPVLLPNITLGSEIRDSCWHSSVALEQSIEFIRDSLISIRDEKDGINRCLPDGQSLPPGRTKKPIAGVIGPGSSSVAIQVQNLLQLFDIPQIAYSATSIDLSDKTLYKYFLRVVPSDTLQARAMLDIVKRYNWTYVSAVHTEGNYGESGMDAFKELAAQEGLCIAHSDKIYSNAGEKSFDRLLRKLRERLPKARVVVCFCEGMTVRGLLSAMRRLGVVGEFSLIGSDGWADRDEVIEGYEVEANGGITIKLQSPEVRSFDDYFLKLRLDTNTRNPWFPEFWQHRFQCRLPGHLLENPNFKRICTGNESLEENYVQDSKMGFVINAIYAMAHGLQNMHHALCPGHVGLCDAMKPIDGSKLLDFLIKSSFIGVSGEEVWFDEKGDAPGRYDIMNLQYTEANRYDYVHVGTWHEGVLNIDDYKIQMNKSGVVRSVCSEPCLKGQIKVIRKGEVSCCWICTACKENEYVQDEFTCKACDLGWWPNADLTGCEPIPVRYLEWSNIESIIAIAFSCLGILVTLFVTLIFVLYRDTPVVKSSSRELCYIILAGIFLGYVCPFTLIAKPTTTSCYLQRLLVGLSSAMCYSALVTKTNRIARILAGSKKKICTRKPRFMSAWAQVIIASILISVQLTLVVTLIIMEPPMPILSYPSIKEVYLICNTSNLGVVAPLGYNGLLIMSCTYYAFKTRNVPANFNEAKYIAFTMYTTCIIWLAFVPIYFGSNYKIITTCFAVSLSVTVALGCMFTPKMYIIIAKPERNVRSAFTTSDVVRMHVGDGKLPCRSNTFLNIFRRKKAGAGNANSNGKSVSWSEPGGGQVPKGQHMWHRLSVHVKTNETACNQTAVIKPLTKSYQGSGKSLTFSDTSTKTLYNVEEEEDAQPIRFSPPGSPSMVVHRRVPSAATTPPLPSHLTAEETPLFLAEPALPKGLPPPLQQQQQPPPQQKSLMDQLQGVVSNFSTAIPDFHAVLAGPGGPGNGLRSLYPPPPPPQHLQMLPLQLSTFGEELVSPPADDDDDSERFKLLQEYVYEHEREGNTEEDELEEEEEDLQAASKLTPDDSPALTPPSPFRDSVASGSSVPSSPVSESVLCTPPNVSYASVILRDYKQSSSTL
Sequence of Serine/threonine-protein kinase B-raf (P15056 2-766 V600E limits assumed): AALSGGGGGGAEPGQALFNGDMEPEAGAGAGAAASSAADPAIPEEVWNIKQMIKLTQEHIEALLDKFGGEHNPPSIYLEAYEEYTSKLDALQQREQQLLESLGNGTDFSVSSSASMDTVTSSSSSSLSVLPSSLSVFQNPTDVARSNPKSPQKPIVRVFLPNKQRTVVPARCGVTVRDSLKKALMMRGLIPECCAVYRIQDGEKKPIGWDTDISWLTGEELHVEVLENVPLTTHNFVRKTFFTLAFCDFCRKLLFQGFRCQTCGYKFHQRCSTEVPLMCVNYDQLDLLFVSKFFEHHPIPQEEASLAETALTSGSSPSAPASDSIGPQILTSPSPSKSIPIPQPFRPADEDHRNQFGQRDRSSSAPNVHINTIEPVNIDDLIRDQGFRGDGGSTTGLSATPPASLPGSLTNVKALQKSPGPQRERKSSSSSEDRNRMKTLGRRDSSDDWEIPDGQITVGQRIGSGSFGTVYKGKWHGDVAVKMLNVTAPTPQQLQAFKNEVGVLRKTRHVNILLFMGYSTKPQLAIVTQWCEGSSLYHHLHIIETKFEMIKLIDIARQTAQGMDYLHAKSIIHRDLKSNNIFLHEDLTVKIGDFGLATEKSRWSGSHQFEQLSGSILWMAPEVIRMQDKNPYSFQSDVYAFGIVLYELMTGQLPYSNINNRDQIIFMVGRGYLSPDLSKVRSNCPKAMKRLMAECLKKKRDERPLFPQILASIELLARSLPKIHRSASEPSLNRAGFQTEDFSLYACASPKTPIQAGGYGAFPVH

Q: With CCNC(=O)Nc1nc2cc(-c3cnc(N4CCC(C(=O)O)CC4)nc3)cc(-c3ccccn3)c2s1 as the compound, how does the IC50 (DNA gyrase subunit B) read?
A: < 0.199 µM

Q: What about the IC50 [1] of the same compound?
A: < 0.1 µg/mL

Q: With CC(C)CN(C[C@@H](O)[C@H](Cc1ccccc1)NC(=O)[C@H](CC(N)=O)NC(=O)c1ccc2ccccc2n1)C(=O)NC(C)(C)C as the compound, how does the IC50 (Protease) read?
A: 0.0063 µM

Q: Which IC50 (Plasmodium falciparum [2]) does the source give for CCCCNC(=O)NCCc1c[nH]c2c1C(=O)C1=C(NC=CS1(=O)=O)C2=O here?
A: 0.644 µM

Q: And the IC50 (Plasmodium falciparum [3])?
A: 0.525 µM

Q: What about the Activity (Plasmodium berghei) of the same compound?
A: 26%

Q: Which IC50 [4] does the source give for N#Cc1cc(F)cc(NC(=O)Nc2ccc(Cl)cn2)c1 here?
A: 0.013 µM

Q: And the IC50 [5]?
A: > 30 µM

Q: What about the IC50 [6] of the same compound?
A: > 30 µM

Q: What about the IC50 [7] of the same compound?
A: > 30 µM

Q: And the IC50 [8]?
A: > 30 µM

Q: What about the IC50 [9] of the same compound?
A: > 30 µM

Q: And the IC50 [10]?
A: > 30 µM

Q: Which results are given for CNC(=O)c1cc(Oc2cccc3nc(NC(=O)Nc4ccc(Cl)c(C(F)(F)F)c4)ccc23)ccn1?
A: IC50 [11]: 0.316 µM; IC50 [12]: 0.061 µM

Q: Which IC50 (LoVo) does the source give for N#Cc1cc(O)ccc1-c1ccc(NC(=O)Nc2ccc(Cl)c(C(F)(F)F)c2)cc1 here?
A: 1.5 µM

Q: What about the IC50 (HT-29) of the same compound?
A: 1.9 µM

Q: With CN(C)C(=O)N[C@H]1CC[C@H](CCN2CCN(c3cccc(Cl)c3Cl)CC2)CC1 [CARIPRAZINE] as the compound, how does the half-life [13] read?
A: 48 to 120 h

Q: Which half-life [14] does the source give for CC(C)c1nc(CN(C)C(=O)N[C@H](C(=O)N[C@@H](Cc2ccccc2)C[C@H](O)[C@H](Cc2ccccc2)NC(=O)OCc2cncs2)C(C)C)cs1 [RITONAVIR] here?
A: 1.2 h
